Results from ChEMBL document CHEMBL1201862, “PubChem BioAssay data set” (2004).
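1) Cells in 96-well plates. 2) Compound, 48 h, 5 concentrations. 3) Linear interpolation between surrounding doses. 4) Unreached endpoint = highest concentration. GI50 = concentration required for 50% inhibition of growth.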 Active and inactive are the calls of the source. Cut-off read from the data, not from the text of the source: active = GI50 up to about 1.1 µM and inactive = higher.

Legend:
Test in all cases: DTP human tumour cell line panel, 48 h
UO-31 = system: UO-31
KM12 = system: KM12
SNB-75 = system: SNB-75
OVCAR-5 = system: OVCAR-5
SN12C = system: SN12C
SK-OV-3 = system: SK-OV-3
MDA-MB-435 = system: MDA-MB-435
HOP-92 = system: HOP-92
LOX IMVI = system: LOX IMVI
UACC-62 = system: UACC-62
T47D = system: T47D
HL-60 = system: HL-60
A549 = system: A549
K562 = system: K562
RPMI-8226 = system: RPMI-8226
Hs-578T = system: Hs-578T
A498 = system: A498
NCI-H23 = system: NCI-H23
SK-MEL-28 = system: SK-MEL-28
SK-MEL-2 = system: SK-MEL-2

| SMILES | GI50 (UO-31) | GI50 (KM12) | GI50 (SNB-75) | GI50 (OVCAR-5) | GI50 (SN12C) | GI50 (SK-OV-3) | GI50 (MDA-MB-435) | GI50 (HOP-92) | GI50 (LOX IMVI) | GI50 (UACC-62) | GI50 (T47D) | GI50 (HL-60) | GI50 (A549) | GI50 (K562) | GI50 (RPMI-8226) | GI50 (Hs-578T) | GI50 (A498) | GI50 (NCI-H23) | GI50 (SK-MEL-28) | GI50 (SK-MEL-2) |
| --- | --- | --- | --- | --- | --- | --- | --- | --- | --- | --- | --- | --- | --- | --- | --- | --- | --- | --- | --- | --- |
| O=C1c2ccccc2/N=C(/c2cc3c(cc2Cl)Sc2nccn2S3(=O)=O)OS(=O)(=O)N1c1ccccc1 | 26 µM (inactive) | 23 µM (inactive) | 7.4 µM (inactive) | 19.4 µM (inactive) | 32.1 µM (inactive) | 36.3 µM (inactive) | 21.3 µM (inactive) | 80.5 µM (inactive) | 8.09 µM (inactive) | 20.5 µM (inactive) | > 100 µM (inactive) | 31.3 µM (inactive) | 30.3 µM (inactive) | 35.2 µM (inactive) | 18.6 µM (inactive) | 46.8 µM (inactive) | > 100 µM (inactive) | 22.4 µM (inactive) | – | – |
| O=C1c2c(ccc3c2CCC3)CC1Cc1ccc2c(c1)CCC2 (centres undefined) | 56.6 µM (inactive) | 25.2 µM (inactive) | 7.38 µM (inactive) | 90.2 µM (inactive) | 23.4 µM (inactive) | 53.3 µM (inactive) | 24 µM (inactive) | – | 25.4 µM (inactive) | 8.24 µM (inactive) | 3.05 µM (inactive) | 4.69 µM (inactive) | 28.9 µM (inactive) | 14 µM (inactive) | 9.91 µM (inactive) | 10 µM (inactive) | 27.1 µM (inactive) | 21.6 µM (inactive) | 51.8 µM (inactive) | 27.2 µM (inactive) |
| COc1ccc(C(=O)Nc2ccc(O)c(=O)cc2)cc1 | 20.9 µM (inactive) | 39.4 µM (inactive) | – | > 100 µM (inactive) | 36.5 µM (inactive) | – | 43.4 µM (inactive) | – | 38.7 µM (inactive) | 32.5 µM (inactive) | < 0.01 µM (active) | 21.3 µM (inactive) | 43.9 µM (inactive) | 32.4 µM (inactive) | 26.9 µM (inactive) | 29.2 µM (inactive) | < 0.01 µM (active) | 89.7 µM (inactive) | 22.5 µM (inactive) | 50.1 µM (inactive) |
| CC(C)(C)OC(=O)NCC(CNC(=O)OC(C)(C)C)C(N)=O | > 100 µM (inactive) | > 100 µM (inactive) | – | > 100 µM (inactive) | > 100 µM (inactive) | > 100 µM (inactive) | > 100 µM (inactive) | > 100 µM (inactive) | > 100 µM (inactive) | > 100 µM (inactive) | > 100 µM (inactive) | > 100 µM (inactive) | > 100 µM (inactive) | > 100 µM (inactive) | > 100 µM (inactive) | > 100 µM (inactive) | > 100 µM (inactive) | > 100 µM (inactive) | > 100 µM (inactive) | – |
| CC1(C)SC2C(NC(=O)C(C(=O)O)c3ccccc3)C(=O)N2C1C(=O)O (centres undefined) | > 100 µM (inactive) | > 100 µM (inactive) | 92 µM (inactive) | > 100 µM (inactive) | > 100 µM (inactive) | > 100 µM (inactive) | > 100 µM (inactive) | – | > 100 µM (inactive) | > 100 µM (inactive) | > 100 µM (inactive) | > 100 µM (inactive) | – | > 100 µM (inactive) | > 100 µM (inactive) | > 100 µM (inactive) | > 100 µM (inactive) | > 100 µM (inactive) | > 100 µM (inactive) | > 100 µM (inactive) |
| Nc1ncnc2c1nc(Cl)n2C1OC2COP(=O)(O)OC2C1O (centres undefined) | 5.87 µM (inactive) | 41.6 µM (inactive) | 11.3 µM (inactive) | 23.3 µM (inactive) | 12 µM (inactive) | 3.01 µM (inactive) | 7.82 µM (inactive) | – | 1.19 µM (inactive) | 10.4 µM (inactive) | 2.38 µM (inactive) | 1.23 µM (inactive) | 23.3 µM (inactive) | 1.01 µM (active) | 5.53 µM (inactive) | 19.6 µM (inactive) | 1.69 µM (inactive) | 7.24 µM (inactive) | > 87.9 µM (inactive) | > 100 µM (inactive) |
